# Columns and labels:
# [1] = test system: control fibroblasts and fibroblasts from a patient with a mutation on each allele of the POLG gene; assay: Maximum non-toxic concentration on fibroblast cultures (xCELLigence cell index); format: cell-based, human; settings: 140 h, 2.5-10 μM tested
# Experimental: Skin fibroblasts from the control and from the patient were cultured in DMEM Galactose (DMEM free of glucose (Life Technologies) supplemented with 10 mM galactose, 10% foetal bovine serum, 200 U/mL penicillin, 200 U/mL streptomycin). Uridine (50 μg/mL) and sodium pyruvate (2.5 mM) were added to the culture medium to maintain the cells expressing a deficiency of the respiratory chain. The cells were incubated in a controlled atmosphere at 37° C. and 5% CO2.
# Cell growth of patient and control fibroblasts was measured continuously for 140 h by use of an xCELLigence apparatus (ACEA Biosciences) in 96-well plates. The background noise of the signal was measured with 50 μL of culture medium per well. 50 μL of medium containing 1350 fibroblasts were then added to each well. The impedance measurement was taken every minute for 9 h and then every 15 minutes until the end of analysis.
# Clofilium tosylate was diluted in 0.1% DMSO and used at different concentrations (2.5 μM, 5 μM, 10 μM) in a total volume of 50 μL. Toxic concentrations of clofilium tosylate were determined by adding the drug from the point of cell seeding. For each drug concentration and each control, the analysis was carried out in triplicate on 96-well plates. A mathematical algorithm was used to convert the impedance signal into cell index (CI). […]
# [2] = test system: homozygous TB2143 nematodes (polg-1(ok1548Δ/Δ)); assay: Gonad and/or intestinal extrusion (premature death) of homozygous nematodes; format: in vivo, Caenorhabditis elegans; settings: 50 μM, until 7th day of adulthood
# Experimental: Ten homozygous TB2143 larvae (polg-1(ok1548Δ/Δ)) at stage L4 were deposited on each NGM dish containing either DMSO or 50 μM clofilium tosylate (three dishes for each treatment group) and incubated at 20° C. Their survival was monitored until the 7th day of adulthood. The number of dead animals, not responding to any stimulation, and having intestinal and/or gonad extrusion was counted. The few animals that died of dehydration at the edge of the petri dishes were excluded from the analysis.
# [3] = test system: fibroblasts from a patient with a mutation on each allele of the POLG gene; assay: Amount of mtDNA (qPCR) in patient fibroblasts, quiescent conditions; format: cell-based, human
# Experimental: Skin fibroblasts from the control and from the patient were cultured to 100% confluence in DMEM at 37° C. under 5% CO2. At 100% confluence, the fibroblasts were washed with PBS and the quiescent medium was added (4.5 g/L D-glucose, 110 mg/L sodium pyruvate, 0.1% foetal bovine serum, 1% penicillin/streptomycin from the stock solution containing 10,000 I.U. penicillin and 10,000 μg/mL streptomycin). After four days in quiescent medium, […] or DMSO (0.1%) was added to the culture medium. The treatment was carried out for 18 days, changing the culture medium with or without clofilium tosylate every three days. […] The mtDNA and nuclear DNA were quantified by qPCR (Sarzi, E., Bourdon, A., Chrétien, D., Zarhrate, M., Corcos, J., Slama, A., Cormier-Daire, V., De Lonlay, P., Munnich, A. and Rötig, A. (2007) Mitochondrial DNA Depletion is a Prevalent Cause of Multiple Respiratory Chain Deficiency in Childhood. J Pediatr, 105, 531-534).
# Skin fibroblasts from the patient were cultured to 100% confluence in DMEM at 37° C. under 5% CO2. […] The mtDNA and nuclear DNA were quantified by qPCR (Sarzi, E., Bourdon, A., Chrétien, D., Zarhrate, M., Corcos, J., Slama, A., Cormier-Daire, V., De Lonlay, P., Munnich, A. and Rötig, A. (2007) Mitochondrial DNA Depletion is a Prevalent Cause of Multiple Respiratory Chain Deficiency in Childhood. J Pediatr, 105, 531-534).
# MIP1 yeast mutants = assay: Fidelity of Mip1 polymerase: frequency of cells resistant to erythromycin (Ery^R); format: cell-based, Saccharomyces cerevisiae; settings: 32 μM vs DMSO
# Description: A disruption of the fidelity of the Mip1 mitochondrial polymerase can be evaluated by measuring the frequency of cells resistant to erythromycin (Ery^R). The Ery^R mutations are caused by mutations in the 21S mitochondrial ribosomal RNA encoded by mtDNA that may occur after incorporation of a bad nucleotide (Baruffini, E., Lodi, T., Dallabona, C., Puglisi, A., Zeviani, M. and Ferrero, I. (2006) Genetic and Chemical rescue of the Saccharomyces cerevisiae phenotype induced by mitochondrial DNA polymerase mutations associated with progressive external ophthalmoplegia in humans. Hum. Mol. Genet., 15, 2846-2855). Measuring the resistance to erythromycin is one way to directly measure the point mutations of mtDNA.
# Independent colonies were seeded in 10 mL of minimal medium (SC-TRP, 2% glucose) in the presence of 32 μM clofilium tosylate or DMSO to stationary phase. […] The mutation frequency was calculated as the number of Ery^R colonies among the total number of colonies (Baruffini, E., Lodi, T., Dallabona, C., Puglisi, A., Zeviani, M. and Ferrero, I. (2006) Genetic and Chemical rescue of the Saccharomyces cerevisiae phenotype induced by mitochondrial DNA polymerase mutations associated with progressive external ophthalmoplegia in humans. Hum. Mol. Genet., 15, 2846-2855).
smiles,measurement,setting,value
CCCCCCC[N+](CC)(CC)CCCCc1ccc(Cl)cc1.Cc1ccc(S(=O)(=O)[O-])cc1 [clofilium tosylate],maximum approved (non-toxic) concentration,[1],2.5 µM
same,premature death by gonad and/or intestinal extrusion,[2],reduced
same,"amount of mtDNA, quiescent conditions","[3]; Example 14, 18-day treatment",increased
same,"amount of mtDNA, quiescent conditions, dose-response","[3]; Example 25, concentrations of 0.5 μM and 1 μM, 18-day treatment",increased
same,fidelity of the different MIP1 yeast mutants (Ery^R frequency),MIP1 yeast mutants,no effect

# Source: patent publication US10639287B2, “Compounds for the treatment of mitochondrial diseases” (UNIVERSITE PARIS-SUD, priority 2014, dated 2020)
